Laboratory results from patent US12110305B2, “Prodrugs of phosphonamide nucleotide analogues and their pharmaceutical use” (priority 2020, dated 2024).
Read-outs that look alike come from different tables or passages of the source.

Columns and labels:
[1] = test system: PBMCs; assay: TFV-DP formation in peripheral blood mononuclear cells (PBMCs); type: in vitro ADME, human; conditions: activated PBMCs, 1 μM compound, 50% serum, 2 hrs at 37° C.; intracellular volume 0.2 pL/cell; average of at least two independent experiments
Protocol: Example 109: TFV-DP Formation in Peripheral Blood Mononuclear Cells (PBMCs)
Compounds were tested in a 96-well assay format for the level of TFV-DP loading in PBMCs in the presence of human serum. PBMCs were activated with 100 units/mL recombinant human […] and 2 μg/mL phytohaemagglutinin (PHA) for 36 hrs. After activation, PBMCs (2 million) were incubated with compounds (1 μM) and cell culture media with 50% serum in a 96 well plate for 2 hrs at 37° C. Cells were transferred to a 96 well deep block plate and spun down. Liquid was removed, and cells were washed 2× with 1 mL of 0.9% saline with spin downs between washes. After a final wash and liquid removal, 500 μL of MeOH+200 nM Cl-ATP+200 nM [adenine-^13C5]-tenofovir diphosphate (tetra ammonium salt) was added and thoroughly mixed with the cells. The plate was then spun down and 450 μL of sample was transferred to a new 96 well plate. Supernatants were then evaporated, reconstituted in 80 μl of 1 mM ammonium phosphate and thoroughly vortexed. Blank samples were pooled for serial dilution to construct calibration standards for TFV, TFV-DP and TFV-TP in pmol/million cells. Samples were then transferred to a short-well 96 well plate, centrifuged and injected on an LC-MS/MS for quantification. Values were reported in μM units using an intracellular volume of 0.2 pL/cell.

[2] = test system: HIV-1 (IIIB); assay: Antiviral (HIV) assay in MT-4 cells; type: cell-based; conditions: HIV-1 IIIB in MT-4 cells, 5 days incubation, Cell Titer Glo, average of at least two independent experiments
Procedure, shortened: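 MT-4 cells, infected with HIV-1 IIIB (1:250 dilution of concentrated stock) or mock-infected, were exposed to 1:3 serially diluted compounds in RPMI with 10% FBS. After 5 days at 37° C., CellTiter-Glo luminescence was read. EC50 = concentration causing […], from sigmoidal dose-response fits.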

[3] = test system: MT-4 cells; assay: Cytotoxicity assay in MT-4 cells; type: cell-based, human; conditions: uninfected MT-4 cells, 5 days; average of at least two independent experiments; read-out: MT4 CC50
Protocol: Compounds were tested in a high-throughput 384-well assay format for their ability to inhibit the replication of HIV-1 (IIIB) in MT-4 cells. Compounds were serially diluted (1:3) in DMSO on 384-well polypropylene plates and further diluted 200-fold into complete RPMI media (10% FBS, 1% P/S) using the Biotek Micro Flow and Labcyte ECHO acoustic dispenser. Each plate contained up to 8 test compounds, with negative (no drug) and positive (5 μM AZT) controls. MT-4 cells were pre-treated with 10 μL of either RPMI (mock-infected) or a fresh 1:250 dilution of HIV-1 IIIB concentrated virus stock. Infected and uninfected MT-4 cells were further diluted in complete RPMI media and added to each plate using a Micro Flow dispenser. After 5 days incubation in a humidified and temperature-controlled incubator (37° C.), Cell Titer Glo (Promega) was added to the assay plates and chemiluminescence read using an Envision plate-reader. EC50 values were defined as the compound concentration that causes a 50% decrease in luminescence signal and were calculated using a sigmoidal dose-response model to generate curve fits and are shown in Table 1.
Example 105: Cytotoxicity Assay in MT-4 Cells
Assays were performed as described in Example 104 except uninfected MT-4 cells were added to each well containing test compound. In addition, 10 μM puromycin was added to the last column of each assay plate to assess a base level of cytotoxicity.

[4] = Human immunodeficiency virus 1, MT4, 120 h

| SMILES | EC50 [2, 4] | other results |
| --- | --- | --- |
| C[C@H](Cn1cnc2c(N)ncnc21)OCP(=O)(NC(C)(C)C(=O)O[C@H]1CC[C@H](C(C)(C)C)CC1)NC(C)(C)C(=O)O[C@H]1CC[C@H](C(C)(C)C)CC1 [Example 12, Bis(trans-4-(tert-butyl)cyclohexyl) 2,2′-((((((R)-1-(6-amino-9H-purin-9-yl)propan-2-yl)oxy)methyl)phosphoryl)bis(azanediyl))bis(2-methylpropanoate)] | 0.172 µM | Average PBMC TFV-DP (μM) [1]: BLQ |
| C[C@H](Cn1cnc2c(N)ncnc21)OCP(=O)(NC(C)(C)C(=O)OCC1CCC(C)(C)CC1)NC(C)(C)C(=O)OCC1CCC(C)(C)CC1 [Example 13, Bis((4,4-dimethylcyclohexyl)methyl) 2,2′-(((((1-(6-amino-9H-purin-9-yl)propan-2-yl)oxy)methyl)phosphoryl)bis(azanediyl))(R)-bis(2-methylpropanoate)] |  | CC50 [3]: 5.47 µM; Average PBMC TFV-DP [1]: 2.6 µM; EC50 ([2]; read-out: MT4 HIV EC50): 0.016 µM |
| C[C@H](Cn1cnc2c(N)ncnc21)OCP(=O)(NC(C)(C)C(=O)OC1CCOCC1)NC(C)(C)C(=O)OC1CCOCC1 [Example 24, Bis(tetrahydro-2H-pyran-4-yl) 2,2′-(((((1-(6-amino-9H-purin-9-yl)propan-2-yl)oxy)methyl)phosphoryl)bis(azanediyl))(R)-bis(2-methylpropanoate)] | > 0.5 µM | Average PBMC TFV-DP (μM) [1]: BLQ |
| CCC[C@H]1CC[C@H](COC(=O)C(C)(C)NP(=O)(CO[C@H](C)Cn2cnc3c(N)ncnc32)NC(C)(C)C(=O)OC[C@H]2CC[C@H](CCC)CC2)CC1 [Example 92] | 0.023 µM |  |
| C[C@H](Cn1cnc2c(N)ncnc21)OCP(=O)(NC(C)(C)C(=O)O[C@H]1CC[C@H](c2ccccc2)CC1)NC(C)(C)C(=O)O[C@H]1CC[C@H](c2ccccc2)CC1 [Example 93, Bis(trans-4-phenylcyclohexyl) 2,2′-((((((R)-1-(6-amino-9H-purin-9-yl)propan-2-yl)oxy)methyl)phosphoryl)bis(azanediyl))bis(2-methylpropanoate)] | 0.097 µM |  |
| CCCCCCOC(=O)C(C)(C)NP(=O)(CO[C@H](C)Cn1cnc2c(NC(=O)OCCOC(=O)c3ccccc3)ncnc21)NC(C)(C)C(=O)OCCCCCC [Example 94, Dihexyl 2,2′-(((((1-(6-(((2-(benzoyloxy)ethoxy)carbonyl)amino)-9H-purin-9-yl)propan-2-yl)oxy)methyl)phosphoryl)bis(azanediyl))(R)-bis(2-methylpropanoate)] | 0.13 µM |  |
| CCCCCCOC(=O)C(C)(C)NP(=O)(CO[C@H](C)Cn1cnc2c(NC(=O)OCC(=O)OCc3oc(=O)oc3C)ncnc21)NC(C)(C)C(=O)OCCCCCC [Example 95, Dihexyl 2,2′-(((((1-(6-(((2-((5-methyl-2-oxo-1,3-dioxol-4-yl)methoxy)-2-oxoethoxy)carbonyl)amino)-9H-purin-9-yl)propan-2-yl)oxy)methyl)phosphoryl)bis(azanediyl))(R)-bis(2-methylpropanoate)] | 0.027 µM |  |
| CCCCCCOC(=O)C(C)(C)NP(=O)(CO[C@H](C)Cn1cnc2c(NC(=O)OCC(C)(C)C(=O)OCc3oc(=O)oc3C)ncnc21)NC(C)(C)C(=O)OCCCCCC [Example 98, Dihexyl 2,2′-(((((1-(6-(((2,2-dimethyl-3-((5-methyl-2-oxo-1,3-dioxol-4-yl)methoxy)-3-oxopropoxy)carbonyl)amino)-9H-purin-9-yl)propan-2-yl)oxy)methyl)phosphoryl)bis(azanediyl))(R)-bis(2-methylpropanoate)] | 0.213 µM |  |
| CCCCCCOC(=O)C(C)(C)NP(=O)(CO[C@H](C)Cn1cnc2c(NC(=O)CCCC(=O)OCc3oc(=O)oc3C)ncnc21)NC(C)(C)C(=O)OCCCCCC [Example 99, (5-Methyl-2-oxo-1,3-dioxol-4-yl)methyl 5-[[9-[(2R)-2-[bis[(2-hexoxy-1,1-dimethyl-2-oxo-ethyl)amino]phosphorylmethoxy]propyl]purin-6-yl]amino]-5-oxo-pentanoate] | 0.091 µM |  |
| CCCCCCOC(=O)C(C)(C)NP(=O)(CO[C@H](C)Cn1cnc2c(NC(=O)CC(C)(C)CC(=O)OCc3oc(=O)oc3C)ncnc21)NC(C)(C)C(=O)OCCCCCC [Example 102, Dihexyl 2,2′-(((((1-(6-(3,3-dimethyl-5-((5-methyl-2-oxo-1,3-dioxol-4-yl)methoxy)-5-oxopentanamido)-9H-purin-9-yl)propan-2-yl)oxy)methyl)phosphoryl)bis(azanediyl))(R)-bis(2-methylpropanoate)] | > 0.5 µM | Average PBMC TFV-DP (μM) [1]: BLQ |
| C[C@H](Cn1cnc2c(N)ncnc21)OCP(=O)(NC(C)(C)C(=O)OCCc1ccccc1)NC(C)(C)C(=O)OCCc1ccccc1 [Example 103, Diphenethyl 2,2′-(((((1-(6-amino-9H-purin-9-yl)propan-2-yl)oxy)methyl)phosphoryl)bis(azanediyl))(R)-bis(2-methylpropanoate)] |  | CC50 [3]: > 42.5 µM; Average PBMC TFV-DP [1]: 0.4 µM; EC50 ([2]; read-out: MT4 HIV EC50): > 0.5 µM |

Second part, led by results:

| EC50 [2, 4] | SMILES | other results |
| --- | --- | --- |
| 0.006 µM | C[C@H](Cn1cnc2c(N)ncnc21)OCP(=O)(NC(C)(C)C(=O)OCC1CCCCCC1)NC(C)(C)C(=O)OCC1CCCCCC1 [Example 89, Bis(cycloheptylmethyl) 2,2′-(((((1-(6-amino-9H-purin-9-yl)propan-2-yl)oxy)methyl)phosphoryl)bis(azanediyl))(R)-bis(2-methylpropanoate)] |  |
| 0.007 µM | C[C@H](Cn1cnc2c(N)ncnc21)OCP(=O)(NC(C)(C)C(=O)OC1CC(C2CCC2)C1)NC(C)(C)C(=O)OC1CC(C2CCC2)C1 (stereo partly drawn) [Example 90, Di([1,1′-bi(cyclobutan)]-3-yl) 2,2′-(((((1-(6-amino-9H-purin-9-yl)propan-2-yl)oxy)methyl)phosphoryl)bis(azanediyl))(R)-bis(2-methylpropanoate)] |  |
| 0.005 µM | C[C@H](Cn1cnc2c(N)ncnc21)OCP(=O)(NC(C)(C)C(=O)OC[C@H]1CC[C@H](C)CC1)NC(C)(C)C(=O)OC[C@H]1CC[C@H](C)CC1 [Example 91, Bis((trans-4-methylcyclohexyl)methyl) 2,2′-((((((R)-1-(6-amino-9H-purin-9-yl)propan-2-yl)oxy)methyl)phosphoryl)bis(azanediyl))bis(2-methylpropanoate)] |  |
| 0.011 µM | CCCCCCOC(=O)C(C)(C)NP(=O)(CO[C@H](C)Cn1cnc2c(NC(=O)[C@H]3CCC(=O)O3)ncnc21)NC(C)(C)C(=O)OCCCCCC [Example 96, Dihexyl 2,2′-((((((R)-1-(6-((R)-5-oxotetrahydrofuran-2-carboxamido)-9H-purin-9-yl)propan-2-yl)oxy)methyl)phosphoryl)bis(azanediyl))bis(2-methylpropanoate)] |  |
| 0.012 µM | CCCCCCOC(=O)C(C)(C)NP(=O)(CO[C@H](C)Cn1cnc2c(NC(=O)OC(C)(C)CC(=O)OCc3oc(=O)oc3C)ncnc21)NC(C)(C)C(=O)OCCCCCC [Example 101, Dihexyl 2,2′-(((((1-(6-((((2-methyl-4-((5-methyl-2-oxo-1,3-dioxol-4-yl)methoxy)-4-oxobutan-2-yl)oxy)carbonyl)amino)-9H-purin-9-yl)propan-2-yl)oxy)methyl)phosphoryl)bis(azanediyl))(R)-bis(2-methylpropanoate)] |  |
